This is an account of results in patent publication US5478856A, “Styrene derivatives and salts thereof” (Taiho Pharmaceutical Co., Ltd., priority 1992, dated 1995).

One assay has as its target Cyclooxygenase. The assay can be described thus: Cyclooxygenase inhibiting effect (prostaglandin E2 formation from 14C-arachidonic acid, seminal vesicular gland microsomes). It is filed as biochemical. The following applies: seminal vasicular gland microsomes, prostaglandin E2 radioactivity. Here is the method:
(1) Cyclooxygenase inhibiting effect
This assay was carried out by the method described in Russell J. Taylor et al., Biochem. Pharmacol., 25, 2479-2484 (1976).
^14 C-arachidonic acid was reacted with seminal vasicular gland microsomes and the test drugs at various concentrations over a predetermined period of time and the obtained prostaglandin E2 was separated by thin layer chromatography. The radioactivity of prostaglandin E2 was determined by liquid scintillation counter. The IC50 values were calculated by the comparison with the radioactivity of the control.

In another assay the target is T1, 5-Lipoxygenase (Cavia porcellus, UniProt A0A286X958).
T1 construct: the polymorphonuclear leucocytes were collected and the cytosol fraction was obtained as an enzyme source; endogenous in cells; host or cells: guinea pig peritoneal polymorphonuclear leucocytes (casein-elicited), cytosol fraction
T1 sequence (A0A286X958 1-674): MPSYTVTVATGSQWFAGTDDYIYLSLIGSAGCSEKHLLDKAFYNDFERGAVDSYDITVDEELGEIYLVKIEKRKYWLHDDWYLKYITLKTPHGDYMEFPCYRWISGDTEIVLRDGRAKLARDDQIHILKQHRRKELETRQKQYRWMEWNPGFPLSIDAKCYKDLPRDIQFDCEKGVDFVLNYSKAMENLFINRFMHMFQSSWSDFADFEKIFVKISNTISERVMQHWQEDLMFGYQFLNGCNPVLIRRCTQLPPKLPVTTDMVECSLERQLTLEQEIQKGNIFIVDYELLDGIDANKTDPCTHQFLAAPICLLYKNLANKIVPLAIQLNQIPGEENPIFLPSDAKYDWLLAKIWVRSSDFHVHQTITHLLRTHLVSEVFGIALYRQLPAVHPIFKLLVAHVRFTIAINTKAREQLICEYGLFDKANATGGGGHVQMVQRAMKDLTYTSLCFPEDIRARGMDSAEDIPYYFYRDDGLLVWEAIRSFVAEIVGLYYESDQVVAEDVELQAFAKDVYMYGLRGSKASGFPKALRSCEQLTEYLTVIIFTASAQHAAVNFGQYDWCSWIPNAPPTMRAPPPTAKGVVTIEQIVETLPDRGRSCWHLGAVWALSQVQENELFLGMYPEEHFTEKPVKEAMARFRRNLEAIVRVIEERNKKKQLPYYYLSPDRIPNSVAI
Put plainly: 5-Lipoxygenase inhibiting activity (5-hydroxyeicosatetraenoic acid formation from 14C-arachidonic acid, cytosol fraction of polymorphonuclear leucocytes). As to conditions: guinea pig polymorphonuclear leucocyte cytosol, 5-hydroxyeicosatetraenoic acid radioactivity. In kind it is biochemical. The protocol:
(2) 5-Lipoxygenase inhibiting activity
This assay was carried out by the method described in Kenkichi Ochi et al., J. Biol. Chem., 258, 5754-5758 (1983).
Casein was injected into the abdominal cavity of a guinea pig, and the polymorphonuclear leucocytes were collected and the cytosol fraction was obtained as an enzyme source. ^14 C-arachidonic acid was reacted with the enzyme and the test drug at various concentrations over a predetermined period of time. The obtained 5-hydroxyeicosatetraenoic acid was separated by thin layer chromatography and the radioactivity was determined. The IC50 values were calculated by the comparison with the radioactivity of the control.

Broadly, the IC50 is the concentration that gives 50% inhibition.

On to `CCOC(=O)C(=Cc1cc(OC)c(O)c(OC)c1)C(=O)NCCc1onc(-c2ccc(OC)cc2)c1-c1ccc(OC)cc1` [Compound 1], for which the IC50 at Cyclooxygenase came out at 2870 nM; at 5-Lipoxygenase, 1170 nM.

As to `COc1ccc(-c2noc(CCNC(=O)C(C#N)=Cc3cc(OC)c(O)c(OC)c3)c2-c2ccc(OC)cc2)cc1` [Compound 2], the IC50 at Cyclooxygenase came out at 4050 nM; at 5-Lipoxygenase, 650 nM.

Turning to `COCC(=Cc1cc(OC)c(O)c(OC)c1)C(=O)NCCc1onc(-c2ccc(OC)cc2)c1-c1ccc(OC)cc1` [Compound 3], the figures for the IC50 at Cyclooxygenase and at 5-Lipoxygenase were 1200 nM and 300 nM, respectively.

Turning to `CCCC(=Cc1cc(OC)c(O)c(OC)c1)C(=O)NCCc1onc(-c2ccc(OC)cc2)c1-c1ccc(OC)cc1` [Compound 4], the half-inhibitory concentration (IC50) at Cyclooxygenase stood at 950 nM; at 5-Lipoxygenase, 180 nM.

Turning to `COc1ccc(-c2noc(CCNC(=O)C(=Cc3cc(OC)c(O)c(OC)c3)c3ccccn3)c2-c2ccc(OC)cc2)cc1` [Compound 6], the values for the IC50 on Cyclooxygenase and on 5-Lipoxygenase were 1380 nM and 620 nM, respectively.

`COc1ccc(-c2noc(CCNC(=O)C(=Cc3cc(OC)c(O)c(OC)c3)c3cccs3)c2-c2ccc(OC)cc2)cc1` [Compound 7]: the IC50 stood at 170 nM on Cyclooxygenase and 80 nM on 5-Lipoxygenase.

For `COc1ccc(-c2noc(CCNC(=O)C(=Cc3cc(OC)c(O)c(OC)c3)C(=O)N(C)C)c2-c2ccc(OC)cc2)cc1` [Compound 8], the figures for the IC50 at Cyclooxygenase and on 5-Lipoxygenase were 4760 nM and 260 nM, respectively.

In the case of `COc1ccc(-c2noc(CCNC(=O)C(C#N)=CC=Cc3cc(OC)c(O)c(OC)c3)c2-c2ccc(OC)cc2)cc1` [Compound 11], the IC50 is 680 nM at Cyclooxygenase and 240 nM on 5-Lipoxygenase.

Take `COc1ccc(-c2noc(CCNC(=O)C(=Cc3cc(OC)c(O)c(OC)c3)NC(C)=O)c2-c2ccc(OC)cc2)cc1` [Compound 18]: the results for the IC50 at Cyclooxygenase and on 5-Lipoxygenase were 110 nM and 180 nM, respectively.

Regarding `COc1ccc(-c2noc(C(C#N)=Cc3cc(OC)c(O)c(OC)c3)c2-c2ccc(OC)cc2)cc1` [Compound 20], the values for the IC50 on Cyclooxygenase and at 5-Lipoxygenase were 1850 nM and 240 nM, respectively.

In the case of `COc1ccc(-c2noc(CCN(CC(=O)O)C(=O)C=CC=Cc3cc(OC)c(O)c(OC)c3)c2-c2ccc(OC)cc2)cc1` [Compound 23], the IC50 at Cyclooxygenase was 2940 nM; on 5-Lipoxygenase, 90 nM.
